# Target: PRS (prolyl-tRNA synthetase) protein, PRS portion of EPRS (Homo sapiens (Human), UniProt P07814)
# Test: PRS enzyme activity inhibition experiment ([3H]proline, liquid scintillation)
# Format: biochemical
# Conditions: purified PRS protein, 37° C. for 5 to 10 minutes
# Summary of the method: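 Values are % inhibition or IC50 ranges (A ≤100 nM, B 100–500 nM, C ≥500 nM) from [3H]proline incorporation measured by liquid scintillation. PRS portion of human EPRS, reacted 5–10 min at 37 °C in pH 7.4 phosphate buffer containing 5 mM ATP and tRNA, compound at 1 μM.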
# PRS (prolyl-tRNA synthetase) protein, PRS portion of EPRS, sequence (P07814 1007-1512): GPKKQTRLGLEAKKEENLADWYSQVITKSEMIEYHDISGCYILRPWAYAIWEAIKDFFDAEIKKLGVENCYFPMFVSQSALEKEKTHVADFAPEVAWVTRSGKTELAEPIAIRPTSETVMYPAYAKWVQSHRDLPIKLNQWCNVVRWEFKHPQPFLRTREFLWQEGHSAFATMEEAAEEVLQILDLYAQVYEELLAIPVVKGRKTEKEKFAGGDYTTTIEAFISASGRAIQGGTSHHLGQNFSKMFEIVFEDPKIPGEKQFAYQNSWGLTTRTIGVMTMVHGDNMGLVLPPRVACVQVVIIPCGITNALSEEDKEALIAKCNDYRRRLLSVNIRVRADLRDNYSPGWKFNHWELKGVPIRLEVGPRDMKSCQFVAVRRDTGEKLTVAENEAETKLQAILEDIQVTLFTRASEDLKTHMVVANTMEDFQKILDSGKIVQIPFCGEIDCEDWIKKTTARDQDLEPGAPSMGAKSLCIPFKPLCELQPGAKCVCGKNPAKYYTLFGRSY
row,SMILES,IC50 [nM]
1,"O=c1[nH]c2cc(Br)ccc2n1CCC[C@H]1NCCC[C@@H]1O [Example 160, 5-bromo-1-(3-((2R,3S)-3-hydroxypiperidin-2-yl)propyl)-1H-benzo[d]imidazol-2(3H)-one]",≥ 500
2,"O=c1[nH]c2ccc(Br)cc2n1CCC[C@H]1NCCC[C@@H]1O [Example 161, 6-bromo-1-(3-((2R,3S)-3-hydroxypiperidin-2-yl)propyl)-1H-benzo[d]imidazol-2(3H)-one]",≥ 500
3,"Cn1c(=O)c2c(ncn2CCC[C@H]2NCCC[C@@H]2O)n(C)c1=O [Example 162, 7-(3-((2R,3S)-3-hydroxypiperidin-2-yl)propyl)-1,3-dimethyl-1H-purine-2,6(3H,7H)-dione]",≥ 500
4,"Cn1c(=O)[nH]c(=O)c2c1ncn2CCC[C@H]1NCCC[C@@H]1O [Example 163, 7-(3-((2R,3S)-3-hydroxypiperidin-2-yl)propyl)-3-methyl-1H-purine-2,6(3H,7H)-dione]",≥ 500
5,"Cn1c(=O)[nH]c2c(ncn2CCC[C@H]2NCCC[C@@H]2O)c1=O [Example 164, 9-(3-((2R,3S)-3-hydroxypiperidin-2-yl)propyl)-1-methyl-1H-purine-2,6(3H,9H)-dione]",≥ 500
6,"CC(C)Cn1c(=O)n(C)c(=O)c2c1ncn2CCC[C@H]1NCCC[C@@H]1O [Example 165, 7-(3-((2R,3S)-3-hydroxypiperidin-2-yl)propyl)-3-isobutyl-1-methyl-1H-purine-2,6(3H,7H)-dione]",≥ 500
7,"O[C@H]1CCCN[C@@H]1/C=C/Cn1cnc2cc(Cl)c(Cl)cc21 [Example 166, (2R,3S)-2-((E)-3-(5,6-dichloro-1H-benzo[d]imidazol-1-yl)prop-1-enyl)piperidin-3-ol]",100 to 500
8,"Cc1c(F)ccc2c1ncn2C/C=C/[C@H]1NCCC[C@@H]1O [Example 167, (2R,3S)-2-((E)-3-(5-fluoro-4-methyl-1H-benzo[d]imidazol-1-yl)prop-1-enyl)piperidin-3-ol]",100 to 500
9,"Cc1c(Br)ccc2c1ncn2C/C=C/[C@H]1NCCC[C@@H]1O [Example 168, (2R,3S)-2-((E)-3-(5-bromo-4-methyl-1H-benzo[d]imidazol-1-yl)prop-1-enyl)piperidin-3-ol]",100 to 500
10,"Cc1cc2ncn(C/C=C/[C@H]3NCCC[C@@H]3O)c2cc1C [Example 169, (2R,3S)-2-((E)-3-(5,6-dimethyl-1H-benzo[d]imidazol-1-yl)prop-1-en-1-yl)piperidin-3-ol]",≥ 500
11,"O[C@H]1CCCN[C@@H]1/C=C/Cn1cnc2cc(Br)c(Br)cc21 [Example 170, (2R,3S)-2-((E)-3-(5,6-dibromo-1H-benzo[d]imidazol-1-yl)prop-1-en-1-yl)piperidin-3-ol]",100 to 500
12,"O[C@H]1CCCN[C@@H]1/C=C/Cn1cnc2cc(F)c(F)cc21 [Example 171, (2R,3S)-2-((E)-3-(5,6-difluoro-1H-benzo[d]imidazol-1-yl)prop-1-en-1-yl)piperidin-3-ol]",≥ 500
13,"Cc1ccc2c(ncn2C/C=C/[C@H]2NCCC[C@@H]2O)c1C [Example 172, (2R,3S)-2-((E)-3-(4,5-dimethyl-1H-benzo[d]imidazol-1-yl)prop-1-en-1-yl)piperidin-3-ol]",≥ 500
14,"Cc1c(Cl)ccc2c1ncn2C/C=C/[C@H]1NCCC[C@@H]1O [Example 173, (2R,3S)-2-((E)-3-(5-chloro-4-methyl-1H-benzo[d]imidazol-1-yl)prop-1-en-1-yl)piperidin-3-ol]",100 to 500
15,"O[C@H]1CCCN[C@@H]1/C=C/Cn1cnc2c(Cl)c(Cl)ccc21 [Example 174, (2R,3S)-2-((E)-3-(4,5-dichloro-1H-benzo[d]imidazol-1-yl)prop-1-en-1-yl)piperidin-3-ol]",≤ 100
16,"Cc1ccc2c(ncn2C/C=C/[C@H]2NCCC[C@@H]2O)c1Cl [Example 175, (2R,3S)-2-((E)-3-(4-chloro-5-methyl-1H-benzo[d]imidazol-1-yl)prop-1-en-1-yl)piperidin-3-ol]",100 to 500
17,"O=[N+]([O-])c1c(Br)ccc2c1ncn2C/C=C/[C@H]1NCCC[C@@H]1O [Example 176, (2R,3S)-2-((E)-3-(5-bromo-4-nitro-1H-benzo[d]imidazol-1-yl)prop-1-en-1-yl)piperidin-3-ol]",≥ 500
18,"O=[N+]([O-])c1c(Br)ccc2ncn(C/C=C/[C@H]3NCCC[C@@H]3O)c12 [Example 177, (2R,3S)-2-((E)-3-(6-bromo-7-nitro-1H-benzo[d]imidazol-1-yl)prop-1-en-1-yl)piperidin-3-ol]",≥ 500
19,"O=[N+]([O-])c1ccc2c(ncn2C/C=C/[C@H]2NCCC[C@@H]2O)c1Cl [Example 178, (2R,3S)-2-((E)-3-(4-chloro-5-nitro-1H-benzo[d]imidazol-1-yl)prop-1-en-1-yl)piperidin-3-ol]",100 to 500
20,"O[C@H]1CCCN[C@@H]1/C=C/Cn1cnc2c(F)cc(F)cc21 [Example 179, (2R,3S)-2-((E)-3-(4,6-difluoro-1H-benzo[d]imidazol-1-yl)prop-1-en-1-yl)piperidin-3-ol]",100 to 500
21,"Cc1cc(Cl)cc2c1ncn2C/C=C/[C@H]1NCCC[C@@H]1O [Example 180, (2R,3S)-2-((E)-3-(6-chloro-4-methyl-1H-benzo[d]imidazol-1-yl)prop-1-en-1-yl)piperidin-3-ol]",100 to 500
22,"O[C@H]1CCCN[C@@H]1/C=C/Cn1cnc2cc(C(F)(F)F)cc(Cl)c21 [Example 181, (2R,3S)-2-((E)-3-(7-chloro-5-(trifluoromethyl)-1H-benzo[d]imidazol-1-yl)prop-1-en-1-yl)piperidin-3-ol]",100 to 500
23,"O[C@H]1CCCN[C@@H]1/C=C/Cn1cnc2cc(Cl)cc(Cl)c21 [Example 182, (2R,3S)-2-((E)-3-(5,7-dichloro-1H-benzo[d]imidazol-1-yl)prop-1-en-1-yl)piperidin-3-ol]",≤ 100
24,"O[C@H]1CCCN[C@@H]1/C=C/Cn1cnc2cc(Cl)cc(F)c21 [Example 183, (2R,3S)-2-((E)-3-(5-chloro-7-fluoro-1H-benzo[d]imidazol-1-yl)prop-1-en-1-yl)piperidin-3-ol]",100 to 500
25,"O[C@H]1CCCN[C@@H]1/C=C/Cn1cnc2nc(Br)ccc21 [Example 184, (2R,3S)-2-((E)-3-(5-bromo-1H-imidazo[4,5-b]pyridin-1-yl)prop-1-en-1-yl)piperidin-3-ol]",≥ 500
26,"O[C@H]1CCCN[C@@H]1/C=C/Cn1cnc2c(Cl)c(-c3cccc(Cl)c3)cnc21 [Example 185, (2R,3S)-2-((E)-3-(7-chloro-6-(3-chlorophenyl)-3H-imidazo[4,5-b]pyridin-3-yl)prop-1-en-1-yl)piperidin-3-ol]",≥ 500
27,"Cc1c(Br)cnc2c1ncn2C/C=C/[C@H]1NCCC[C@@H]1O [Example 186, (2R,3S)-2-((E)-3-(6-bromo-7-methyl-3H-imidazo[4,5-b]pyridin-3-yl)prop-1-en-1-yl)piperidin-3-ol]",100 to 500
28,"O[C@H]1CCCN[C@@H]1/C=C/Cn1cnc2c(Cl)c(Br)cnc21 [Example 187, (2R,3S)-2-((E)-3-(6-bromo-7-chloro-3H-imidazo[4,5-b]pyridin-3-yl)prop-1l-en-1-yl)piperidin-3-ol]",≤ 100
29,"Cc1c(Cl)cnc2c1ncn2C/C=C/[C@H]1NCCC[C@@H]1O [Example 188, (2R,3S)-2-((E)-3-(6-chloro-7-methyl-3H-imidazo[4,5-b]pyridin-3-yl)prop-1-en-1-yl)piperidin-3-ol]",≥ 500

# Reference: US10981917B2, “Heterocyclic compound, its preparation method, and pharmaceutical composition comprising the same” (Daewoong Pharmaceutical Co., Ltd., priority 2017, dated 2021)
